Source: US12065416B2, “cGAS antagonist compounds” (IMMUNESENSOR THERAPEUTICS, INC., priority 2016, dated 2024)

Molecular target: T1, recombinant cGAS (aa147-522) (Homo sapiens, UniProt Q8N884)
T1 construct: recombinant cGAS (aa147-522); His6-SUMO (N, cleaved yes); made in house; host or cells: E. coli BL21/pLys
Experiment: In vitro assay for inhibition of cGAS activity (ATP consumption, Kinase Glo)
Format: biochemical
Conditions: 37° C. 20 minutes, read-out: Activity (Inhibition of cGAS enzyme activity in vitro, IC50)
Method: cDNA encoding full-length or amino acids 147-520 of human cGAS is inserted into a modified pET28a vector containing an in-frame His6-SUMO tag. The E. coli strain BL21/pLys harboring the plasmid is induced with 0.5 mM IPTG at 18° C. overnight. His6-SUMO tag was removed by a SUMO proease following purification of the HiS-SUMO-cGAS as described previously (Sun et al, 2013, Science 339, 786).
A40 μL mixture containing 1.5 ng/μL of recombinant cGAS (aa147-522) and serial dilutions of a test compound or DMSO was added to a 96-well plate and incubated at 37° C. for 20 minutes. At the end of reaction, 20 μL of Kinase Glo (Promega) was added and chemiluminescence measured with a luminometer. Inhibitory effect of a compound is evaluated by plotting percentage of ATP consumption against logarithm of compound concentrations. IC50 value was calculated using Graphpad (Sigma).

T1 sequence (Q8N884 147-522): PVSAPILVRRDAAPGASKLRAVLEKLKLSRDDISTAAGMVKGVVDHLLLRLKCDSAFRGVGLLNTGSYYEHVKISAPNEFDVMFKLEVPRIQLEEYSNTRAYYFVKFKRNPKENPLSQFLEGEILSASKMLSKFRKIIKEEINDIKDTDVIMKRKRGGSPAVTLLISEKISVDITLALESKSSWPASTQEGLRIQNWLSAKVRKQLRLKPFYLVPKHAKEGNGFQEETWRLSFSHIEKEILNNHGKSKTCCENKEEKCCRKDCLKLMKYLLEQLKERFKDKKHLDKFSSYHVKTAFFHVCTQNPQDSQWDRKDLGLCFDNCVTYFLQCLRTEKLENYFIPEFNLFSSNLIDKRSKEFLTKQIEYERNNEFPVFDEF

Row | SMILES | IC50 [µM]
1 | COc1cc(/C=C2\SC(=O)N(C)C2=O)c(F)cc1O [Ex29] | ≥ 10
2 | CN1C(=O)S/C(=C\c2cc(C(C)(F)F)c(O)cc2Br)C1=O [Ex210] | 0.5 to 10
3 | COc1cc(/C=C2\Sc3ncc(F)cc3C2=O)c(Br)cc1O [Ex48] | ≤ 0.5
4 | C#Cc1cc(O)c(OC)cc1/C=C1\SC(=O)N(C)C1=O [Ex19] | ≥ 10
5 | CN1C(=O)S/C(=C\c2cc(OCC(F)(F)c3cnc(N)nc3)c(O)c(F)c2Br)C1=O [ExA20] | 0.5 to 10
6 | COc1cc(/C=C2\SC(=O)N(C)C2=O)c(C(F)(F)F)cc1O [Ex31] | 0.5 to 10
7 | CN1C(=O)S/C(=C\c2cc(CC(F)(F)F)c(O)cc2Br)C1=O [ExB20] | 0.5 to 10
8 | CN1C(=O)S/C(=C\c2cc(Oc3ccc(=O)[nH]c3)c(O)cc2Br)C1=O [Ex231] | 0.5 to 10
9 | O=C1/C(=C/c2cc(OCc3ccncc3)c(O)cc2Br)Sc2ncccc21 [Ex72] | ≤ 0.5
10 | O=C1NC(=O)/C(=C/c2cncnc2)S1 [Ex8] | ≥ 10
11 | N=C1NC(=O)/C(=C/c2ccncc2)S1 [Ex9] | ≥ 10
12 | CN1C(=O)S/C(=C\c2cc(OCc3ccc(NC(=O)c4ccccn4)nc3)c(O)cc2Br)C1=O [Ex56] | 0.5 to 10
13 | CN1C(=O)S/C(=C\c2cc(OCc3cnc(NCc4ccccn4)nc3)c(O)c(F)c2Br)C1=O [Ex188] | 0.5 to 10
14 | CN1C(=O)S/C(=C\c2cc(OC(F)(F)F)c(Oc3cnc(N)s3)cc2Br)C1=O [ExB33] | ≥ 10
15 | CN1C(=O)S/C(=C\c2cc3c(Cc4cnc(N)nc4)c[nH]c3cc2Br)C1=O [Ex208] | 0.5 to 10
16 | CC(=O)c1cc(N)ccc1Oc1cc(/C=C2\SC(=O)N(C)C2=O)c(Br)c(F)c1O [ExB7] | ≥ 10
17 | CN1C(=O)S/C(=C\c2cc(Oc3ccccc3)c(O)cc2Br)C1=O [Ex27] | 0.5 to 10
18 | COc1cc(/C=C2\Sc3ncccc3C2=O)c(Br)cc1Oc1cnc(N)s1 [Ex74] | 0.5 to 10
19 | O=C1NC(=O)/C(=C/c2ccncc2C(F)(F)F)S1 [Ex4] | ≥ 10
20 | O=C1NC(=O)/C(=C2\CCCc3cnccc32)S1 [Ex5] | ≤ 0.5
21 | CN1C(=O)S/C(=C\c2cc(OCc3cncc(NC(=O)c4cccnc4)c3)c(O)cc2Br)C1=O [Ex224] | 0.5 to 10
22 | O=C1NC(=O)/C(=C/c2ccncc2)S1 [Ex2] | ≥ 10
23 | O=C1NC(=O)/C(=C/c2cnccn2)S1 [Ex7] | ≥ 10
24 | O=C1NC(=O)/C(=C/c2ccnnc2)N1 [Ex15] | ≥ 10

Row | SMILES | IC50 [µM]
25 | CN1C(=O)S/C(=C\c2cc(OCc3ccn(-c4ccccc4)c(=O)c3)c(O)cc2Br)C1=O [Ex136] | 0.5 to 10
26 | CN1C(=O)S/C(=C\c2cc(Oc3ccc(-c4cccnc4)cc3)c(O)cc2Br)C1=O [ExB28] | ≥ 10
27 | O=C1NC(=O)/C(=C/c2ccncc2)S1 [Ex1] | ≤ 0.5
28 | CC(=O)c1cc(/C=C2\SC(=O)N(C)C2=O)c(Br)cc1Oc1cnc(N)s1 [ExB34] | ≥ 10
29 | CSc1cc(/C=C2\SC(=O)N(C)C2=O)c(Br)cc1O [Ex69] | 0.5 to 10
30 | CN1C(=O)S/C(=C\c2cc(CCc3ccc([S+](C)[O-])cc3)c(O)cc2Br)C1=O (centres unmarked) [ExB38] | ≥ 10
31 | O=C1/C(=C/c2cc(C(F)(F)F)c(O)cc2Br)Sc2ncccc21 [ExB17] | ≤ 0.5
32 | CN1C(=O)S/C(=C\c2cc(OCC(=O)Nc3nncs3)c(O)c(F)c2Br)C1=O [ExB1] | 0.5 to 10
33 | CN1C(=O)S/C(=C\c2cc(Oc3cccc(O)c3N)c(O)cc2Br)C1=O [ExB12] | ≥ 10
34 | COc1cc(/C=C/C=C2\SC(=O)N(C)C2=O)c(Br)cc1O [Ex37] | 0.5 to 10
35 | COc1cc(/C=C2\Sc3ncncc3C2=O)c(Br)cc1O [Ex51] | 0.5 to 10
36 | Cc1ncc(COc2cc(/C=C3\Sc4ncccc4C3=O)c(Br)cc2O)c(C)n1 [Ex120] | ≤ 0.5
37 | COc1cc(/C=C2\SC(=O)N(C)C2=O)c(Br)cc1-c1nn[nH]n1 [Ex35] | 0.5 to 10
38 | O=C1/C(=C/c2cc3nn[nH]c3cc2Br)Sc2ncccc21 [Ex78] | ≤ 0.5
39 | CN1C(=O)S/C(=C\c2cc(OCC3CCN(C(=O)c4ccccn4)CC3)c(O)cc2Br)C1=O [Ex128] | 0.5 to 10
40 | Nc1ncc(/C=C/c2cc(/C=C3\Sc4ncccc4C3=O)c(Br)cc2O)cn1 [ExB42] | ≤ 0.5
41 | CN1C(=O)S/C(=C\c2cc3oc(=O)[nH]c3cc2Br)C1=O [Ex25] | 0.5 to 10
42 | CN1C(=O)S/C(=C\c2cc3c(-c4ccc(N)cc4)c[nH]c3cc2Br)C1=O [ExB14] | 0.5 to 10
43 | O=C1NC(=O)/C(=C/c2c[nH]cn2)S1 [Ex6] | ≥ 10
44 | COc1cc(/C=C2\SC(=O)N(C)C2=O)c(Br)cc1Oc1ccnc2ccccc12 [Ex204] | 0.5 to 10
45 | COc1cc(/C=C2\SC(=O)N(C)C2=O)c(Br)cc1Oc1cnc(NCc2cccnc2)s1 [Ex207] | 0.5 to 10
46 | COc1cc(/C=c2\sc3n(c2=O)CCCN=3)c(Cl)cc1O [Ex43] | 0.5 to 10
47 | CN1C(=O)S/C(=C\c2cc(OCC3CCN(C(=O)c4ccccc4)CC3)c(O)cc2Br)C1=O [Ex127] | 0.5 to 10

Next, values leading:

Row | IC50 [µM] | SMILES
48 | 0.5 to 10 | CC(Oc1cc(/C=C2\SC(=O)N(C)C2=O)c(Br)c(F)c1O)c1cncnc1 (centres unmarked) [Ex192]
49 | 0.5 to 10 | CN1C(=O)S/C(=C\c2cc(OCc3ccnc4ccccc34)c(O)cc2Br)C1=O [Ex178]
50 | 0.5 to 10 | CN1CCN(c2ncc(COc3cc(/C=C4\SC(=O)N(C)C4=O)c(Br)cc3O)cn2)CC1 [Ex167]
51 | 0.5 to 10 | CC(C)CNc1ncc(COc2cc(/C=C3\SC(=O)N(C)C3=O)c(Br)cc2O)cn1 [Ex151]
52 | 0.5 to 10 | CN1C(=O)S/C(=C\c2cc(OCc3cnc(S)nc3)c(O)cc2Br)C1=O [Ex219]
53 | 0.5 to 10 | Cc1ncc(C(C)Oc2cc(/C=C3\SC(=O)N(C)C3=O)c(Br)cc2O)cn1 (centres unmarked) [Ex180]
54 | 0.5 to 10 | CSc1ncc(COc2cc(/C=C3\SC(=O)N(C)C3=O)c(Br)cc2O)cn1 [Ex144]
55 | 0.5 to 10 | COc1ncc(COc2cc(/C=C3\SC(=O)N(C)C3=O)c(Br)cc2O)cn1 [Ex143]
56 | ≤ 0.5 | Cc1ncc(COc2cc(/C=C3\SC(=O)N(C)C3=O)c(Br)cc2O)cn1 [Ex142]
57 | ≥ 10 | CN1C(=O)S/C(=C\c2cc(OCc3cnc(N4CCOCC4)nc3)c(O)cc2Br)C1=O [Ex166]
58 | ≤ 0.5 | CN1C(=O)S/C(=C\c2cc(OCc3cnc(NC(=O)c4ccncc4)nc3)c(O)cc2Br)C1=O [Ex161]
59 | 0.5 to 10 | CN1C(=O)S/C(=C\c2cc(OCc3cnc(-c4ccccc4)nc3)c(O)cc2Br)C1=O [Ex145]
60 | ≥ 10 | COc1cccc(Oc2cc(/C=C3\SC(=O)N(C)C3=O)c(Br)cc2O)c1N [ExB11]
61 | 0.5 to 10 | Cc1nc(N)nc(C)c1COc1cc(/C=C2\SC(=O)N(C)C2=O)c(Br)cc1O [Ex223]
62 | ≤ 0.5 | CC(Oc1cc(/C=C2\SC(=O)N(C)C2=O)c(Br)cc1O)c1cnc(N)nc1 (centres unmarked) [Ex84]
63 | 0.5 to 10 | CN1C(=O)S/C(=C\c2cc(OCc3cnc(-n4ccnc4)nc3)c(O)cc2Br)C1=O [Ex168]
64 | 0.5 to 10 | CC(Oc1cc(/C=C2\SC(=O)N(C)C2=O)c(Br)cc1O)c1cnc(Cl)nc1 (centres unmarked) [Ex104]
65 | 0.5 to 10 | CN1C(=O)S/C(=C\c2cc(OCc3cnc(Nc4ccccn4)nc3)c(O)cc2Br)C1=O [Ex83]
66 | 0.5 to 10 | CN1C(=O)S/C(=C\c2cc(OCc3ccc4cccnc4c3)c(O)cc2Br)C1=O [Ex175]
67 | 0.5 to 10 | CC(Cc1cnc(N)nc1)Oc1cc(/C=C2\SC(=O)N(C)C2=O)c(Br)c(F)c1O (centres unmarked) [ExB9]

Row | IC50 [µM] | SMILES
68 | 0.5 to 10 | CN1C(=O)S/C(=C\c2cc(OCc3cnc(-n4cccn4)nc3)c(O)cc2Br)C1=O [Ex169]
69 | 0.5 to 10 | CN1C(=O)S/C(=C\c2cc(OCc3ccccc3)c(O)cc2Br)C1=O [Ex88]
70 | 0.5 to 10 | CN1C(=O)S/C(=C\c2cc(OCc3cnc(C4CCNCC4)nc3)c(O)cc2Br)C1=O [Ex95]
71 | 0.5 to 10 | CN1C(=O)S/C(=C\c2cc(CCc3cnc(N)nc3)c(O)cc2Br)C1=O [ExB41]
72 | 0.5 to 10 | COCCNc1ncc(C(C)Oc2cc(/C=C3\SC(=O)N(C)C3=O)c(Br)cc2O)cn1 (centres unmarked) [Ex182]
73 | 0.5 to 10 | CC(C)COc1cc(/C=C2\SC(=O)N(C)C2=O)c(Br)cc1O [Ex85]
74 | ≥ 10 | CSc1ncc(COc2cc(/C=C3\SC(=O)N(C)C3=O)c(Br)cc2O)c(SC)n1 [Ex100]
75 | 0.5 to 10 | Cc1ncc(COc2cc(/C=C3\SC(=O)N(C)C3=O)c(Br)cc2O)cn1 [Ex186]
76 | ≤ 0.5 | CNc1ncc(COc2cc(/C=C3\SC(=O)N(C)C3=O)c(Br)c(F)c2O)cn1 [Ex187]
77 | 0.5 to 10 | CN1C(=O)S/C(=C\c2cc(OCc3cnc(C4CC4)nc3)c(O)cc2Br)C1=O [Ex94]
78 | ≥ 10 | CN1C(=O)S/C(=C\c2cc(OCc3ccc4ncccc4c3)c(O)cc2Br)C1=O [Ex174]
79 | 0.5 to 10 | CN1C(=O)S/C(=C\c2cc(Oc3ccnc(N)c3)c(O)cc2Br)C1=O [Ex101]
80 | 0.5 to 10 | CN1C(=O)S/C(=C\c2cc(OCc3cnc(Nc4ccccc4)nc3)c(O)cc2Br)C1=O [Ex158]
81 | 0.5 to 10 | Cc1nc(N)ncc1C(C)Oc1cc(/C=C2\SC(=O)N(C)C2=O)c(Br)cc1O (centres unmarked) [Ex183]
82 | 0.5 to 10 | CN1C(=O)S/C(=C\c2cc(OCc3ccc(=O)[nH]c3)c(O)cc2Br)C1=O [Ex125]
83 | ≤ 0.5 | [2H]C(C)(Oc1cc(/C=C2\SC(=O)N(C)C2=O)c(Br)c(F)c1O)c1cnc(N)nc1 (centres unmarked) [ExB29]
84 | 0.5 to 10 | CNc1ncc(C(C)Oc2cc(/C=C3\SC(=O)N(C)C3=O)c(Br)cc2O)cn1 (centres unmarked) [Ex105]
85 | ≥ 10 | CC(C)C(=O)Nc1cncc(COc2cc(/C=C3\SC(=O)N(C)C3=O)c(Br)cc2O)c1 [Ex226]
86 | 0.5 to 10 | CN1C(=O)S/C(=C\c2cc(OCc3cnc(-c4ccccn4)nc3)c(O)cc2Br)C1=O [Ex97]
